# Tests used:
# [1] = tested on: Escherichia coli; assay: Activity of Escherichia coli beta-lactamase VIM-1 by spectrophotometry
# [2] = tested on: Escherichia coli; assay: Ratio of Kcat to Km for Escherichia coli beta-lactamase VIM-1 by spectrophotometry
Km [1] [µM],kcat [1] [s⁻¹],kcat/Km [2] [M⁻¹ s⁻¹],SMILES
150,550,3.7e+06,CO/N=C(\C(=O)N[C@@H]1C(=O)N2C(C(=O)[O-])=C(C[N+]3(C)CCCC3)CS[C@H]12)c1csc(N)n1
450,43,96000,CO[C@@]1(NC(=O)C(C(=O)O)c2ccc(O)cc2)C(=O)N2C(C(=O)O)=C(CSc3nnnn3C)CO[C@@H]21 (stereo not given in full)
130,26,200000,CO[C@@]1(NC(=O)Cc2cccs2)C(=O)N2C(C(=O)O)=C(COC(N)=O)CS[C@@H]21
1.5,0.2,130000,C[C@@H](O)[C@H]1C(=O)N2C(C(=O)O)=C(SCCNC=N)C[C@H]12
50,13,260000,C[C@@H](O)[C@H]1C(=O)N2C(C(=O)O)=C(S[C@@H]3CN[C@H](C(=O)N(C)C)C3)[C@H](C)[C@H]12

# From ChEMBL document CHEMBL1275486, “Kinetic characterization of VIM-7, a divergent member of the VIM metallo-beta-lactamase family” (Antimicrob Agents Chemother, 2008)
